Measured values as given in publication PMC3454376, “Salidroside Improves Behavioral and Histological Outcomes and Reduces Apoptosis via PI3K/Akt Signaling after Experimental Traumatic Brain Injury” (PLoS ONE, 2012).

What was measured:
[1] = test system: mice subjected to controlled cortical impact injury; assay: Fluoro-Jade B staining of degenerating neurons; format: in vivo; conditions: day 1
Procedure: All animal procedures were approved by the Animal Research Committee at Cheng Hsin General Hospital (Animal permit number […] 101-08), and all procedures complied with the Guide for the Care and Use of Laboratory Animals published by the US National Institutes of Health (NIH Publication No. 85-23, revised 1996). Animals were housed under a 12-h light/dark cycle and at constant temperature (21-25°C) and humidity (45-50%). They were allowed free access to pellet chow and water. TBI in mice was induced by a CCI injury model as previously described. Briefly, 8-week-old male C57BL/6 mice (weighing 22-25 g) were anesthetized through the use of intraperitoneal injection of sodium pentobarbital (65 mg/kg; Rhone Merieux, Harlow, UK) and placed in a stereotaxic frame. A 5 mm craniotomy was performed over the right parietal cortex, centered on the coronal suture and 0.1 mm lateral to the sagittal suture, and injury to dura was avoided. Injury was induced using a pneumatic piston with a rounded metal tip (2.5 mm diameter) that was angled 22.5° to the vertical so that the tip was perpendicular with the brain surface at the center of the craniotomy. The impact, with a velocity of […] and a deformation depth of 2 mm below the dura, was applied. The bone flap was immediately replaced and sealed, and the scalp was sutured. Body temperature was monitored throughout the surgery by a rectal probe; temperature was maintained at 37.0±0.5°C using a heated pad. Mice were placed in a heated cage to maintain body temperature, while recovering from anesthesia. Sham-operated mice underwent the same procedure as injured mice, but without CCI. Three sets of experiments were performed. The first set was to investigate the protective effects of salidroside. All animals were randomized into 1 of 3 groups (sham injury, CCI + vehicle, CCI + SALD 20). Surgery/injury, behavioral testing, and tissue analyses were performed by different individuals. Behavioral testing and tissue analyses were performed by individuals blinded to the treatment group. Salidroside (Cayman Chemical, Ann Arbor, MI, USA) dissolved in normal saline (0.25 mL) or a corresponding volume of vehicle (saline) was administered intraperitoneally 10 min following injury. Testing after injury was completed as follows: 1) behavioral testing at days 1, 4, 7, 14, 21, and 28 (n = 8-10 mice/group); 2) cresyl violet staining at day 28 (n = 9 mice/group); 3) histology, determination of brain water content, and western blot analysis at day 1 or 3 (n = 5-6 mice/group). To determine the optimal dose of salidroside, a pilot study was performed using 2 different doses (20 and 50 mg/kg) administered 10 min after injury, and neurological deficits and tissue damage were evaluated as the main outcomes. […] The second set of experiment was to assess the effect of the inhibition of PI3K/Akt with the specific PI3K inhibitor, LY294002 (Cell Signaling Technology, Danvers, MA, USA), on salidroside effects. Animals were randomized into 4 groups. Mice received either: 1) icv pretreatment of LY294002 followed by SALD 20 after CCI (S20Y group); or 2) icv pretreatment of saline (vehicle control) followed by SALD 20 after CCI (S20V group). 3) Mice were infused icv with saline and were subjected to sham injury. 4) Mice were infused icv with LY294002 and were subjected to sham injury. Testing after injury was completed as follows: 1) cresyl violet staining at day 28 (n = 6 mice/group); 2) western blot analysis at day 1 (n = 6 mice/group). The third set of experiment was performed to examine the neuroprotective time window afforded by salidroside. Mice received intraperitoneal SALD 20 or vehicle (saline) at 3 or 6 h following CCI and were sacrificed 1 day later for FJB staining and western blot analysis (n = 6 mice/group). […]

[2] = test system: mice subjected to controlled cortical impact injury; assay: TUNEL staining of apoptotic cells; format: in vivo; conditions: 20 mg/kg ip 10 min after CCI; day 1; vehicle 57.8±6.4%; P<0.01
Procedure: All animal procedures were approved by the Animal Research Committee at Cheng Hsin General Hospital (Animal permit number […] 101-08), and all procedures complied with the Guide for the Care and Use of Laboratory Animals published by the US National Institutes of Health (NIH Publication No. 85-23, revised 1996). Animals were housed under a 12-h light/dark cycle and at constant temperature (21-25°C) and humidity (45-50%). They were allowed free access to pellet chow and water. TBI in mice was induced by a CCI injury model as previously described. Briefly, 8-week-old male C57BL/6 mice (weighing 22-25 g) were anesthetized through the use of intraperitoneal injection of sodium pentobarbital (65 mg/kg; Rhone Merieux, Harlow, UK) and placed in a stereotaxic frame. A 5 mm craniotomy was performed over the right parietal cortex, centered on the coronal suture and 0.1 mm lateral to the sagittal suture, and injury to dura was avoided. […] Body temperature was monitored throughout the surgery by a rectal probe; temperature was maintained at 37.0±0.5°C using a heated pad. […] To determine the optimal dose of salidroside, a pilot study was performed using 2 different doses (20 and 50 mg/kg) administered 10 min after injury, and neurological deficits and tissue damage were evaluated as the main outcomes. […]

[3] = test system: primary cultured cortical neurons; assay: MTT cell viability after in vitro neuronal stretch injury; format: cell-based, C57BL/6 mice; conditions: added immediately after injury, MTT at 24 h, stretch alone 61.8±1.5%
Procedure: All culture medium supplies were from Invitrogen (Invitrogen, Carlsbad, CA, USA). Cortical neuronal cells were prepared from embryonic day 15.5 C57BL/6 mice and cultured in serum-free conditions as previously described. Briefly, the cortices were isolated and digested in 0.5 mg/mL papain at 37°C for 15 min, followed by dissociation in Hibernate-A medium (containing B27 supplement) by aspirating trituration. The cells were then plated onto poly-L-lysine-coated 6-well silastic culture plates (Flexcell International Corporation, Hillsborough, NC, USA) at a density of 5×10^4 cells/cm^2 and maintained in Neurobasal medium supplemented with B27, 10 units/mL penicillin, […], and 0.5 mg/mL glutamine. Four days after plating, 50% of the medium was removed and replaced with fresh medium. The cells were cultured at 37°C in a humidified tri-gas incubator (5%O2, 90% N2, and 5% CO2) and were used at day 10 in vitro. The cortical cultures contain mostly neurons and there were <2% of glia cells, as determined by immunohistochemical staining.
Cultures were stretched by rapid deformation of the silastic culture plates (Flexplates), using the Cell Injury Controller II (Custom Design and Fabrication; Virginia Commonwealth University, Richmond, VA, USA) as previously described. This device uses a regulated flow of compressed gas to rapidly pressurize cells cultured on flexible substrates, causing a radial stretch injury. […] This stimulus intensity corresponds to the “moderate stretch” [62]. The primary cultured neurons were treated with 0.1, 1, 10, 20, and 50 µM salidroside, respectively, immediately following injury. The cortical neurons cultured in plain medium served as control. Cell viability analysis was performed 24 h after injury.
The cell viability was determined by assessing the degree of MTT reduction. Briefly, cells were incubated at 37°C for 2 h with MTT (0.5 mg/mL final concentration; Sigma-Aldrich; St. Louis, MO, USA). Afterwards, a solution of anhydrous isopropanol, HCl (0.1 N), and 0.1% Triton X-100 was added for the dissolution of formazan crystal. The optical density was determined at 570 nm using a microplate reader. Cell viability was expressed as a percentage of the control culture. The experiments were repeated 4 times with different batches of primary cultures.

OC[C@H]1O[C@@H](OCCc2ccc(O)cc2)[C@H](O)[C@@H](O)[C@@H]1O [SALD, salidroside]
FJB-positive neurons around the injured cortical area ([1]; 20 mg/kg ip 10 min after CCI, vehicle 87.9±5.9, P<0.01): 55.1±6.9 cells/field
reduction of the number of FJB-positive neurons ([1]; 20 mg/kg ip 10 min after injury): 37.3%
reduction of neuronal damage (FJB) ([1]; 20 mg/kg ip 3 h after injury): 21.9%
FJB-positive neurons around the injured cortical area ([1]; 20 mg/kg ip 3 h after injury, vehicle 91.2±3.3, P<0.001): 71.2±2.7 cells/field
reduction of neuronal damage (FJB) ([1]; 20 mg/kg ip 6 h after injury): 22.8%
FJB-positive neurons around the injured cortical area ([1]; 20 mg/kg ip 6 h after injury, vehicle 92.9±3.3, P<0.001): 71.7±1.6 cells/field
TUNEL-positive cells (TUNEL-stained nuclei/DAPI-stained nuclei) [2]: 31.0±6.4%
cell survival after stretch injury (relative to control) ([3]; 0.1 µM, P>0.05): 65.3±1.3%
cell survival after stretch injury (relative to control) ([3]; 1 µM, P<0.001): 72.5±1.6%
cell survival after stretch injury (relative to control) ([3]; 10 µM, P<0.001): 90.9±1.4%
cell survival after stretch injury (relative to control) ([3]; 20 µM, P<0.001): 91.4±1.4%
cell survival after stretch injury (relative to control) ([3]; 50 µM, P<0.001): 90.5±1.4%
